According to US11608332B2, “FGFR4 inhibitor and preparation method and use thereof” (Jiangsu Hansoh Pharmaceutical Group Co., Ltd., priority 2016, dated 2023):

How the values were obtained:
HuH-7 cells = assay: Inhibition of HuH-7 cell proliferation (CellTiter-Glo); format: cell-based; details: Homo sapiens, 72 hours
How it was run: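 HuH-7 cells, pre-incubated 16–24 h (37 °C, 5% CO2), then exposed to serially diluted compound for 72 h. Viability by CellTiter-Glo luminescence; inhibition rates from signal, IC50 by curve fitting.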

Hep 3B cells = assay: Inhibition of Hep 3B cell proliferation (CellTiter-Glo); format: cell-based; details: Homo sapiens, Hep3B, 72 hours
How it was run: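 Hep 3B cells seeded at 1-5×10^4 cells/ml and incubated 16-24 h, then exposed to serially diluted compound for 72 h at 37° C, 5% CO2. Viability read by CellTiter-Glo chemiluminescence; IC50 curve-fitted from inhibition rates.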

FGFR1 kinase = FGFR1 kinase (Homo sapiens (Human), UniProt P11362); assay: Enzymologic experiment of FGFR1 (TR-FRET); format: biochemical; details: TR-FRET kinase activity
Chain of FGFR1 kinase (P11362 22-822): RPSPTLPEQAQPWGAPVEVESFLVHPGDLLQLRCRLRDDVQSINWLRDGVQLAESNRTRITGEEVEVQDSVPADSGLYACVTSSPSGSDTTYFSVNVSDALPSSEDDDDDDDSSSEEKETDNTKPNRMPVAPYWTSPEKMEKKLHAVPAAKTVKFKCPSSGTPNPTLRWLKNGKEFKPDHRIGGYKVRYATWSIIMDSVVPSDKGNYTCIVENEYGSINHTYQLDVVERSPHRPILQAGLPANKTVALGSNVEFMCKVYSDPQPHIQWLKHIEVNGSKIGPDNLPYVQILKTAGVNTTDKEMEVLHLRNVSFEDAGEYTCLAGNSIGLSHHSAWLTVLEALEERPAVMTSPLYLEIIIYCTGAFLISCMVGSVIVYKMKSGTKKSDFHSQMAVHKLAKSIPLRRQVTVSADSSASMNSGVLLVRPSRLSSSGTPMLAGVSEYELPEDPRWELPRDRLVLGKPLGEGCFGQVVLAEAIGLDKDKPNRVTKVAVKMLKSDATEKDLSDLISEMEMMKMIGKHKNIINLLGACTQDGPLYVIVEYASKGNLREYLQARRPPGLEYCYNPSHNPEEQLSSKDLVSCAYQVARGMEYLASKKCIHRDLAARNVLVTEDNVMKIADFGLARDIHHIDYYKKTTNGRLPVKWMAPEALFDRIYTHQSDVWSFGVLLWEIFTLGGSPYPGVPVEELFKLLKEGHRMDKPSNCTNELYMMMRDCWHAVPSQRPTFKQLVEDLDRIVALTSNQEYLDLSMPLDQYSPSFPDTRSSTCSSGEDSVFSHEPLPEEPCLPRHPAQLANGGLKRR
How it was run: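 Inhibition of FGFR1 (0.1–5 nM) was measured by TR-FRET with 5–50 nM peptide substrate and 10–200 μM ATP over 0.5–3 h at room temperature. The reaction was stopped with EDTA plus labeled antibody for 1 h, read at 665 nm, and IC50 was fitted from inhibition rates.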

FGFR4 kinase = FGFR4 kinase (Homo sapiens (Human), UniProt P22455); assay: Enzymologic experiment of FGFR4 (TR-FRET); format: biochemical; details: TR-FRET kinase activity
Chain of FGFR4 kinase (P22455 22-802): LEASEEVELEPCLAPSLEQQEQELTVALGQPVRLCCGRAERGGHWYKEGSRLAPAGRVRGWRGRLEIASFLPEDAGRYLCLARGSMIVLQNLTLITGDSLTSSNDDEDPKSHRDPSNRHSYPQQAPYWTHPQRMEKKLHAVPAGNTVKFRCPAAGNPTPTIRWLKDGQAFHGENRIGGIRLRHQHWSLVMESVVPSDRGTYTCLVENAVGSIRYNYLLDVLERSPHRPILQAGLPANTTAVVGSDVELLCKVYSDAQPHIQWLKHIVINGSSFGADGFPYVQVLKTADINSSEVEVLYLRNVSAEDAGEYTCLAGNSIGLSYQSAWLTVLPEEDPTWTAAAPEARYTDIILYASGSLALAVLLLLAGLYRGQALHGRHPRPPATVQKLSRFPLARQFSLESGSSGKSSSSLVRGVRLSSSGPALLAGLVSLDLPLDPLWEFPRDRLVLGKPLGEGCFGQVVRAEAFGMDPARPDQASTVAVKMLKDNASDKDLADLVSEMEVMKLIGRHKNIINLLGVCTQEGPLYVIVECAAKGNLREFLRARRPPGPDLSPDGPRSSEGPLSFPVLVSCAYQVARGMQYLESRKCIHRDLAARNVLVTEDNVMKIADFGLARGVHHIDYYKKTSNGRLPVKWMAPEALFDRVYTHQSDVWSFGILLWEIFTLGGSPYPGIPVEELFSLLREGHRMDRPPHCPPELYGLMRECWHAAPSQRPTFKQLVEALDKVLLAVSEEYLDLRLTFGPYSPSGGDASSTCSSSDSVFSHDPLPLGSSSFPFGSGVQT
Method: 1. Enzymologic Experiment of FGFR4
In this experiment, the inhibitory effect of the compounds on FGFR4 kinase activity was tested by a fluorescence resonance energy transfer (TR-FRET) method, and the half maximal inhibitory concentration (IC50) of the compounds on the FGFR4 kinase activity was determined.
2) 1˜5 μL of diluted solution in gradient of the compound were added.
4) The mixture was incubated for 0.5-3 hours at room temperature.
5) 10 μL of EDTA and a test solution comprising labeled antibody were added, and the plate was incubated for 1 hour at room temperature.
6) The fluorescence signal values of each plate were determined by a microplate reader at 665 nm.
7) The inhibition rates were calculated according to the fluorescence signal values.

SK-HEP-1 cells = assay: Inhibition of SK-HEP-1 cell proliferation (CellTiter-Glo); format: cell-based; details: Homo sapiens, SK-HEP1, 72 hours
How it was run: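 SK-HEP-1 cells were seeded, grown 16–24 h, then exposed to serially diluted compound for 72 h at 37 °C, 5% CO2. Viability was read by CellTiter-Glo luminescence, and IC50 was fitted from inhibition rates.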

[1] = Pharmacokinetic (PK) analysis in rats; format: in vivo, Sprague Dawley (SD) rats; details: SD rats, single intragastric administration, 5 mg/kg, plasma; for AUC(0-t) / AUC(0-inf) / half-life / MRT / Cmax: Sprague-Dawley, rat, po; for AUC(0-t): read-out: Area Under Curve AUC0-t; for AUC(0-inf): read-out: Area Under Curve AUC0-∞; for half-life: read-out: Half-Time t1/2 (converted); for MRT: read-out: Mean Residence Time MRT; for Cmax: read-out: Plasma Concentration Cmax

Row | Compound | IC50 (HuH-7 cells) | IC50 (Hep 3B cells) | IC50 (FGFR1 kinase) | IC50 (FGFR4 kinase) | IC50 (SK-HEP-1 cells) | Peak Time tmax [1] | AUC(0-t) [1] | AUC(0-inf) [1] | half-life [1] | MRT [1] | Cmax [1]
1 | CO[C@H]1CCN(Cc2cc3c(nc2C=O)N(C(=O)Nc2cc(N[C@@H]4COC[C@H]4OC)c(C#N)cn2)CCC3)C1=O [Example 86] | 13.1 nM | 3 nM | > 10000 nM | 1.34 nM | > 10000 nM | 2 h | 6830 ng·h/mL | 6900 ng·h/mL | 1 h | 2.7 h | 2760 ng/mL
2 | CCN1CCC[C@@H]1C(=O)N(C)Cc1cc2c(nc1C=O)N(C(=O)Nc1cc(NCCOC)c(C#N)cn1)CCC2 [Example 97, (R)—N-(5-Cyano-4-((2-methoxyethyl)amino)pyridin-2-yl)-6-((1-ethyl-N-methylpyrrolidin-2-carboxamido)methyl)-7-formyl-3,4-dihydro-1,8-naphthyridin-1(2H)-carboxamide] | 43.7 nM | 9.8 nM | > 10000 nM | 1.47 nM | > 10000 nM |  |  |  |  |  | 
3 | COCCNc1cc(NC(=O)N2CCCc3cc(CN(C)C(=O)[C@H]4CCCN4C(C)=O)c(C=O)nc32)ncc1C#N [Example 10, (R)-6-((1-Acetyl-N-methylpyrrolidin-2-carboxamido)methyl)-N-(5-cyano-4-((2-methoxyethyl)amino)pyridin-2-yl)-7-formyl-3,4-dihydro-1,8-naphthyridin-1(2H)-carboxamide] |  |  | > 10000 nM | 1.88 nM |  | 2 h | 5260 ng·h/mL | 5340 ng·h/mL | 1 h | 2.8 h | 1960 ng/mL
4 | COCCSc1cc(NC(=O)N2CCCc3cc(CN(C)C(=O)[C@H]4CCCO4)c(C=O)nc32)ncc1C#N [Example 16, (R)—N-(5-Cyano-4-((2-methoxyethyl)thio)pyridin-2-yl)-7-formyl-6-((N-methyltetrahydrofuran-2-carboxamido)methyl)-3,4-dihydro-1,8-naphthyridin-1(2H)-carboxamide] | 10.7 nM | 3.9 nM | > 10000 nM | 1.98 nM | > 10000 nM | 2 h | 8760 ng·h/mL | 8370 ng·h/mL | 1.4 h | 2.5 h | 3140 ng/mL
5 | COCC(=O)N(C)Cc1cc2c(nc1C=O)N(C(=O)Nc1cc(N[C@@H]3COC[C@H]3OC)c(C#N)cn1)CCC2 (relative stereo) [Example 108, N-(5-Cyano-4-(((trans)-4-methoxytetrahydrofuran-3-yl)amino)pyridin-2-yl)-7-formyl-6-((2-methoxy-N-methylacetamido)methyl)-3,4-dihydro-1,8-naphthyridin-1 (2H)-carboxamide] | 10 nM | 2.5 nM | > 10000 nM | 1.07 nM | > 10000 nM |  |  |  |  |  | 
6 | COC[C@@H](C)Oc1cc(NC(=O)N2CCCc3cc(CN(C)C(=O)[C@H]4CCCO4)c(C=O)nc32)ncc1C#N [Example 15, N-(5-Cyano-4-(((R)-1-methoxypropan-2-yl)oxy)pyridin-2-yl)-7-formyl-6-(((R)—N-methyltetrahydrofuran-2-carboxamido)methyl)-3,4-dihydro-1,8-naphthyridin-1(2H)-carboxamide] | 8 nM | 3.5 nM | > 10000 nM | 2.53 nM | > 10000 nM | 2 h | 7160 ng·h/mL | 7970 ng·h/mL | 1.5 h | 3 h | 2690 ng/mL
7 | CN(Cc1cc2c(nc1C=O)N(C(=O)Nc1cc(N(C)C)c(C#N)cn1)CCC2)C(=O)C1CCCO1 (stereo not drawn) [Example 4, N-(5-Cyano-4-(dimethylamino)pyridin-2-yl)-7-formyl-6-((N-methyltetrahydrofuran-2-carboxamido)methyl)-3,4-dihydro-1,8-naphthyridin-1(2H)-carboxamide] |  |  | > 10000 nM | 4.54 nM |  |  |  |  |  |  | 
8 | COC[C@@H](C)Oc1cc(NC(=O)N2CCCc3cc(CN4CC[C@H](OC)C4=O)c(C=O)nc32)ncc1C#N [Example 50, N-(5-Cyano-4-(((R)-1-methoxypropan-2-yl)oxy)pyridin-2-yl)-7-formyl-6-(((S)-3-methoxy-2-carbonylpyrrolidin-1-yl)methyl)-3,4-dihydro-1,8-naphthyridin-1(2H)-carboxamide] | 9.4 nM | 2.3 nM | > 10000 nM | 1.2 nM | > 10000 nM | 2 h | 9220 ng·h/mL | 9240 ng·h/mL | 0.8 h | 2.5 h | 2350 ng/mL
9 | CN(Cc1cc2c(nc1C=O)N(C(=O)Nc1cc(N[C@H]3CCOC3)c(C#N)cn1)CCC2)C(=O)C1CCOCC1 [Example 99, (S)—N-(5-Cyano-4-((tetrahydrofuran-3-yl)amino)pyridin-2-yl)-7-formyl-6-((N-methyltetrahydro-2H-pyran-4-carboxamido)methyl)-3,4-dihydro-1,8-naphthyridin-1(2H)-carboxamide] | 12 nM | 5.5 nM | > 10000 nM | 1.95 nM | > 10000 nM |  |  |  |  |  | 
10 | COCCNc1cc(NC(=O)N2CCCc3cc(CN(C)C(=O)[C@H]4CCCN4C)c(C=O)nc32)ncc1C#N [Example 9, (R)—N-(5-Cyano-4-((2-methoxyethyl)amino)pyridin-2-yl)-6-((N,1-dimethylpyrrolidin-2-carboxamido)methyl)-7-formyl-3,4-dihydro-1,8-naphthyridin-1(2H)-carboxamide] | 31 nM | 8.2 nM | > 10000 nM | 0.74 nM | > 10000 nM | 2 h | 4400 ng·h/mL | 4800 ng·h/mL | 1.3 h | 3 h | 1700 ng/mL
11 | CO[C@@H]1CCN(c2cc(NC(=O)N3CCCc4cc(CN(C)C(=O)[C@H]5CCCO5)c(C=O)nc43)ncc2C#N)C1 [Example 18, N-(5-Cyano-4-((R)-3-methoxypyrrolidin-1-yl)pyridin-2-yl)-7-formyl-6-(((R)—N-methyltetrahydrofuran-2-carboxamido)methyl)-3,4-dihydro-1,8-naphthyridin-1(2H)-carboxamide] |  |  | > 10000 nM | 4.2 nM |  |  |  |  |  |  | 
12 | CO[C@H]1CCN(Cc2cc3c(nc2C=O)N(C(=O)Nc2cc(NC4COC4)c(C#N)cn2)CCC3)C1=O [Example 83, (S)—N-(5-Cyano-4-(oxetan-3-ylamino)pyridin-2-yl)-7-formyl-6-((3-methoxy-2-carbonylpyrrolidin-1-yl)methyl)-3,4-dihydro-1,8-naphthyridin-1(2H)-carboxamide] | 5.5 nM | 4.7 nM | > 10000 nM | 1.32 nM | > 10000 nM | 2 h | 7520 ng·h/mL | 7590 ng·h/mL | 0.9 h | 3 h | 2330 ng/mL
